# Results reported in publication PMC6661809, “Lead optimization for promising monoamine oxidase inhibitor from eugenol for the treatment of neurological disorder: synthesis and in silico based study” (BMC Chemistry, 2019).
# Legend:
# hMAO-A = biological target: T1, hMAO-A (Homo sapiens, UniProt P21397); test: Recombinant human MAO-A inhibition screening (Amplex Red, p-tyramine); assay type: biochemical
# T1 construct: purchased Sigma-Aldrich; host or cells: insect cells (BTI-TN-5B14) infected with recombinant baculovirus
# T1 sequence (P21397 1-527): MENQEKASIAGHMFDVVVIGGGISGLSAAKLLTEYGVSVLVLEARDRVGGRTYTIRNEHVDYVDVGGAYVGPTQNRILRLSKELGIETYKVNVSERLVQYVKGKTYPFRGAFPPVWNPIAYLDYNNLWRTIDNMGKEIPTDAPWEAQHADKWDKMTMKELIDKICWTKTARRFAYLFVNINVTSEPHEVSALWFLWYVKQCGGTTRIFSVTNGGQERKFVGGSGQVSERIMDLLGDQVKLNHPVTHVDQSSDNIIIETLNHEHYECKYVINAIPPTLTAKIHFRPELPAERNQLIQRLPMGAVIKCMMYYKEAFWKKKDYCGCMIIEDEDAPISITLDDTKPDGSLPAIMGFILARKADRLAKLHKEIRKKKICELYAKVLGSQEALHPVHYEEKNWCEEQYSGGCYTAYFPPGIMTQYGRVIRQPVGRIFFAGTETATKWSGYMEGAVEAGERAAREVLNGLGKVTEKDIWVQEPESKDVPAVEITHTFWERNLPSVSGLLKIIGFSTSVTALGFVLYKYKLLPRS
# From the text: (§1) To evaluate IC50 values for the inhibition of human MAO-A and MAO-B by newly synthesized compounds the commercially available recombinant human enzymes expressed in insect cells were used (Sigma-Aldrich). The MAO inhibition assay was based on the method described by Anderson et al., 1993 and Chimenti et al. with some modifications. The Amplex Red MAO Kit tyramine (Sigma-Aldrich) affords a suitable fluorimetric method to evaluate MAO enzyme action of synthetic and natural compounds. In the assay, MAO reacts with p-tyramine, a common substrate for both MAO isoforms, ensuing in the production of H2O2, which is identified by a fluorimetric method (λex = 530/λem = 585 nm). Each test well contained 0.1 mL of sodium phosphate buffer (0.05 M, pH 7.4), a range of concentrations of the eugenol based derivatives or reference compounds along with recombinant hMAO-A or hMAO-B in appropriate quantity. After the preparation of this mixture the wells were subjected to incubation for 15 min at 37 °C, placed in the dark fluorimeter chamber. Once this incubation period over, the process was rendered by mixing 200 µM Amplex Red reagent (Sigma-Aldrich), 1 U/mL horseradish peroxidase (Sigma-Aldrich) and p-tyramine (Sigma-Aldrich). Subsequently, the formation of hydrogen peroxide exerted by MAO isoforms was quantified by using Amplex-Red reagent, a non-fluorescent probe that reacts with H2O2 in the existence of horse radish peroxidase to generate the fluorescent component resorufin. Moreover, the control analysis was calculated in the absence of compound and reference inhibitors. The probability of compounds to change the fluorescence produced in the reaction mix due to non-enzymatic inhibition was assessed by mixing titled compounds to solutions of single Amplex Red reagent in a sodium phosphate buffer. Data were processed in Microsoft Excel, to calculate IC50 values.
# hMAO-B [1] = biological target: T2, hMAO-B (Homo sapiens, UniProt P27338); test: Recombinant human MAO-B inhibition screening (Amplex Red, p-tyramine); assay type: biochemical; conditions: p-tyramine substrate, mean SEM
# T2 construct: purchased Sigma-Aldrich; host or cells: insect cells (BTI-TN-5B14) infected with recombinant baculovirus
# T2 sequence (P27338 1-520): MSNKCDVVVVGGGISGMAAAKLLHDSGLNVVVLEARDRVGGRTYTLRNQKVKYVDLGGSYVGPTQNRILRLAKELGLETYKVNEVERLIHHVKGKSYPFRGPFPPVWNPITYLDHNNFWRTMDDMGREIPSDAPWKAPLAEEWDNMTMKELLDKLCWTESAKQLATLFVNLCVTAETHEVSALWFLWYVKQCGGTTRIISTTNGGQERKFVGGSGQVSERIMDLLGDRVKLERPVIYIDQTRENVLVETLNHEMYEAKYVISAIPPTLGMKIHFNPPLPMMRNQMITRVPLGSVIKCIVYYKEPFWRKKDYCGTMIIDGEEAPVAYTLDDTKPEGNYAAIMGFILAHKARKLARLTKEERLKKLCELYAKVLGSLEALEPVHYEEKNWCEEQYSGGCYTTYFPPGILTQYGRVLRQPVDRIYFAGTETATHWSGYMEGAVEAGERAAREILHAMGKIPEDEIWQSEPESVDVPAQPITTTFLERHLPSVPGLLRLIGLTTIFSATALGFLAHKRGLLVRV
# From the text: as §1
# DPPH scavenging activity = conditions: Table 6, mean ± SEM, n = 3
# Description: Solutions of synthesized compounds were set in ethanol/water (1:1) having 10 mM to 100 mM at a period of 10 mM. The 0.01% DPPH· stock solution was prepared in ethanol/water (1:1). Samples were prepared as 5 mL DPPH· solution was mixed with 5 mL L-ascorbic acid solution then shaken vigorously and kept in the dark. Corresponding blank sample were prepared and L-ascorbic acid was used as reference standard. […] The actual decrease in absorption induced by the test was compared with the positive controls. The IC50 values were calculated use the dose inhibition curve in linear range by plotting the extract concentration versus the corresponding scavenging effect through following equation [(ADR − APR)/AO] × 100. Where ADR is the absorbance prior to reaction and APR is the absorbance after reaction with DPPH·.
# [2] = Hydrogen peroxide scavenging (H2O2) assay; conditions: Table 7, mean ± SEM, n = 3
# Description: Hydrogen peroxide generally turns into water and oxygen and produces highly toxic hydroxyl radical that renders the damage to DNA and peroxidation of lipid. H2O2 scavenging ability of eugenol based derivatives was evaluated by method described by Nakano and colleagues with some alteration. The hydrogen peroxide solution (40 mM) was prepared in phosphate buffer (40 mM pH 7.4) and addition of several ranges of synthesized derivatives (05–80 μg/mL) was done into H2O2 solution (2 mL). The determination of H2O2 concentration was done by UV/Vis Epoch ELISA reader at 230 nm upon incubation of 10 min. Solution of phosphate buffer without H2O2 was noted as blank reading. The hydrogen peroxide percentage inhibition was estimated through the formula [(AH − AD)/AO] × 100, where AH is the absorbance of the control and AD is the absorbance of compounds/reference taken as 05–80 μg/mL L-ascorbic acid.
# [3] = Nitric oxide scavenging activity; conditions: Table 8, mean ± SEM, n = 3
# From the text: The generation of nitric oxide (NO·) on biological tissues is mediated by particular nitric oxide synthases enzyme that control the catabolism of the arginine to citrulline via creation of NO through a five electron oxidative reaction. At the physiological pH (7.2) in aqueous solution sodium nitroprusside decompose to produce NO·. Finally, NO· reacts with oxygen at underaerobic conditions and produces stable products (nitrate and nitrite), this amount can be determined by means of Griess reagent. The procedure for the nitric oxide scavenging activity was adopted from reports of Alam et al..
# [4] = Ferric reducing antioxidant power (FRAP) assay; conditions: Table 9, mean ± SEM, n = 3;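 also: Ferrous-TPTZ reduction read as absorbance at 593 nm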
# Description: The capacity of antioxidants to decrease ferric iron is measured by this method. The reaction of […] (TPTZ) and complex ferric iron yields ferrous form at low pH. […] This method was adopted from the reports of Benzie et al..
# rat MAO-A [5] = conditions: mitochondrial rat brain; cited from earlier work
# rat MAO-B [6] = conditions: mitochondrial rat brain; cited from earlier work
# human MAO-A = biological target: human MAO-A; design: method as in PMID 21190052; conditions: competitive inhibitor; cited from earlier work
# MAO B = biological target: MAO B; design: method as in PMID 21190052; conditions: cited from earlier work
# hMAO-B [7] = biological target: T2, hMAO-B; conditions: eugenol from Rhizoma acori graminei; cited from earlier work
# rat MAO-A [8] = test system: rat MAO-A; design: method as in PMID 28771213; conditions: Table 1, literature overview; cited from earlier work
# rat MAO-B [9] = test system: rat MAO-B; design: method as in PMID 28771213; conditions: Table 1, literature overview; cited from earlier work
# mice [10] = test system: mice; design: method as in PMID 28771213; conditions: cited from earlier work
# mice [11] = test system: mice; design: method as in PMID 28771213; conditions: repeated administration, dose-dependent; cited from earlier work
# mice [12] = test system: mice; design: method as in PMID 21190052; conditions: administered for 14 days; cited from earlier work
# Swiss mouse = test system: Swiss mouse; design: method as in PMID 28771213; conditions: controls negative and positive (imipramine); cited from earlier work
compound,measurement,setting,value
C=CCc1ccc(O)c(OC)c1 [Eugenol],Selectivity index,hMAO-A; IC50 (MAO-A)/IC50 (MAO-B),1.24
same,IC50,"hMAO-A; recombinant hMAO-A, p-tyramine substrate, mean SEM",16.54 ± 0.045 µM
same,IC50,hMAO-B [1],13.3 ± 0.037 µM
same,DPPH scavenging IC50,DPPH scavenging activity,10.29 ± 0.011 µg/mL
same,H2O2 scavenging IC50,[2],9.980 ± 0.012 µg/mL
same,Nitric oxide scavenging IC50,[3],11.724 ± 0.003 µg/mL
same,FRAP IC50,[4],10.627 ± 0.082 µg/mL
same,Ki,rat MAO-A [5],25.7 µM
same,Ki,rat MAO-B [6],79.9 µM
same,Ki,human MAO-A,25 µM
same,Ki,MAO B,211 µM
same,Ki,hMAO-B [7],15 µM
same,IC50,rat MAO-A [8],5.34 ± 0.065 µM
same,IC50,rat MAO-B [9],24 ± 1.32 µM
same,LD50,mice [10],4500 mg/kg
same,Immobility in the FST and tail suspension test (TST),mice [11],decreased immobility
same,Forced swim test (FST) score,mice [12],significantly increased
COc1ccc(C(C)=O)c(O)c1 [Paeonol],Ki,rat MAO-A [5],51.1 µM
same,Ki,rat MAO-B [6],54.6 µM
C=CCc1ccc(OC)c(OC)c1 [Methyl-eugenol],IC50,rat MAO-A [8],7.12 ± 0.46 µM
same,IC50,rat MAO-B [9],43.23 ± 0.054 µM
C=CCc1ccc(O)c(-c2cc(CC=C)ccc2O)c1 [Magnolol],Ki,rat MAO-A [5],35.4 µM
same,Ki,rat MAO-B [6],49.3 µM
CC1CCC(C(C)C)C(O)C1 (centres unmarked) [Menthol],IC50,rat MAO-A [8],23.1 ± 0.35 µM
same,IC50,rat MAO-B [9],37.4 ± 0.76 µM
Cc1ccc(C(C)C)cc1O [Carvacrol],IC50,rat MAO-A [8],15.6 ± 0.49 µM
same,IC50,rat MAO-B [9],23.42 ± 0.04 µM
COc1cc(C=O)ccc1O [Vanillin],IC50,rat MAO-A [8],17.88 ± 0.16 µM
same,IC50,rat MAO-B [9],45.34 ± 0.09 µM
same,Observations in behavioral test (FST),Swiss mouse,Controls: negative and positive (imipramine) The treatment reduced the spontaneous locomotion
C=CCc1ccc(O)c(-c2ccc(O)c(CC=C)c2)c1 [Honokiol],Ki,rat MAO-A [5],38.2 µM
same,Ki,rat MAO-B [6],54.6 µM
